The source of these data is patent EP4813403A1, “USE OF GLP-1R/GIPR DOUBLE-TARGET AGONIST IN PREPARING ANIMAL DRUG” (Hangzhou Zhongmeihuadong Pharmaceutical Co., Ltd., priority 2023, dated 2025).

As a reminder, the AUC(0-inf) is total exposure, with the tail of the curve extrapolated. As a reminder, the AUC(0-t) is exposure summed from dosing to a finite time, without extrapolation to infinity. Lower therefore signals less exposure. The term Cmax denotes the highest concentration seen after dosing. One may read the Tmax as the time from dosing to the highest level. By half-life is commonly meant the time needed for the level to fall by half in the phase considered. Read a high half-life as slow loss. What is called MRT is the average time that molecules of a dose stay in the body.

In one data set the test system is cat GIPR. Kind of data set: Agonistic activity on GIPR of different species (LANCE Ultra cAMP assay): cat. The class given is cell-based. To be noted: ratio of EC50 value of other species to human EC50 value. On the procedure: CHO-K1 cells were seeded in a 6-well plate at 0.6×10^6 cells/well and incubated overnight in an incubator at a temperature of 37 °C and a carbon dioxide concentration of 5%. The next day, CHO-K1 cell media were replaced. Then two tubes A and B were prepared for each plasmid. 100 µL Opti-MEM was added to tube A, then 4 µL Lipofectamine™ 3000 was added and mixed uniformly. 100 µL Opti-MEM was firstly added to tube B, then 2 µg of one of the plasmids (human GLP-1R-pcDNA5 (+) plasmid, cat GLP-1R-pcDNA5 (+) plasmid, human GIPR-pcDNA5 (+) plasmid, cat GIPR-pcDNA5 (+) plasmid) was added and mixed uniformly, and 4 µL P3000™ was added to tube B and mixed uniformly (the ratio of plasmid to transfection reagent was 1 µg: 2 µL). The diluted solution in tube A was added to the diluted solution in tube B, mixed evenly, and incubated at room temperature for 15 minutes. […]
18-20 hours after transfection, human GLP-1R-CHO, cat GLP-1R-CHO, human GIPR-CHO, cat GIPR-CHO cells were resuspended in 1×Casein Stimulation Buffer (HBSS, 5 mM HEPES, 0.5 mM IBMX, 0.1% casein, pH7.4), and seeded into a 384-well cell culture plate at 9 µL/well (cell numbers being 2000, 2000, 1000, 2000 cells/well, respectively). […] The readings at 665 nm and 620 nm were determined with a 330 nm excitation light on a microplate reader. The 665 nm/620 nm reading ratio was calculated. […]
For orientation: In TR-FRET formats the signal depends on donor and acceptor labels being close together.

The target of another data set is T1, rabbit GLP-1R (Oryctolagus cuniculus, UniProt G1SGD4).
T1 construct: expressed in transfected cells
T1 sequence (G1SGD4 24-462): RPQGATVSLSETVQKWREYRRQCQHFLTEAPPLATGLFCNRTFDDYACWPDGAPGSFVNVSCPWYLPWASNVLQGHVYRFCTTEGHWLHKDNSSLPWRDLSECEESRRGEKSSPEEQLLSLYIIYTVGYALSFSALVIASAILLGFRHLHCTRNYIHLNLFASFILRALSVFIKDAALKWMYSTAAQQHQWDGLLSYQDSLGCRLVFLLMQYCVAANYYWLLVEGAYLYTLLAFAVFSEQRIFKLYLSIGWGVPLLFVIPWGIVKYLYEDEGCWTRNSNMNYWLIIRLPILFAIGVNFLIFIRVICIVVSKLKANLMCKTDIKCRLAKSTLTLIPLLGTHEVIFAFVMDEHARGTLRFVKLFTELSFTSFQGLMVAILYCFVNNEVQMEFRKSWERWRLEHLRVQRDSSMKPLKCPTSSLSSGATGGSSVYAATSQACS
Put plainly: Agonistic activity on GLP-1R of different species (LANCE Ultra cAMP assay): rabbit. The format is cell-based. To be noted: ratio of EC50 value of other species to human EC50 value. The method, then: The in vitro agonistic activity of the compound of the present invention on GLP-1R was measured in cells stably expressing human, dog, mouse, rat, rabbit, and monkey GLP-1R (human GLP-1R-HEK, dog GLP-1R-HEK, mouse GLP-1R-HEK, rat GLP-1R- in HEK, rabbit GLP-1R-CHO, monkey GLP-1R-HEK cells). Human GLP-1R-HEK, dog GLP-1R-HEK, mouse GLP-1R-HEK, rat GLP-1R-HEK, rabbit GLP-1R-CHO, and monkey GLP-1R-HEK cells were resuspended in 1×Casein Stimulation Buffer (HBSS, 5 mM HEPES, 0.5 mM IBMX, 0.1% casein, pH7.4), and seeded into a 384-well cell culture plate at 9 µL/well (cell numbers being 1000, 1000, 1000, 1500, 1000, 1000 cells/well, respectively). 1 µL of 1×Casein Stimulation Buffer containing 10× compound was added to the above-mentioned 384-well cell culture plate. The plate was incubated at 37 °C for 30 minutes. After the incubation was completed, 5 µL of Eu-cAMP working solution and 5 µL of Ulight^TM-cAMP working solution were added sequentially, centrifuged and then incubated at room temperature for 1 hour. The readings at 665 nm and 620 nm were determined with a 330 nm excitation light on a microplate reader. The 665 nm/620 nm reading ratio was calculated. […] GraphPad was used to perform nonlinear regression according to the response percentage and the concentration of the compound added to obtain the EC50 value for each compound.

A short description of a further data set: in vivo. More on the design: species or system cats. To be noted: sc, 0.025 mg/kg. The method, then:
After subcutaneous administration to cats, plasma was collected and the drug concentration in plasma was determined to illustrate the in vivo pharmacokinetic properties of the compound according to the present invention. […] The blood samples were stored on wet ice and centrifuged (1500-1600 g, 2-8°C, for 10 minutes) within 0.5 hours to obtain plasma, with at least 100 µL of plasma required for each sample. The plasma was then frozen and stored at -90°C to -60°C for subsequent analysis and detection. 30.0 µL of thawed plasma sample were taken, and 300 µL of acetonitrile solution containing an internal standard was added to precipitate the proteins. The mixture was vortexed for 1 minute and then centrifuged at 13,000 rpm for 5 minutes. 165 µL of the supernatant were transferred to a 96-well plate for LC-MS/MS analysis to determine the drug concentration in the plasma. Based on the drug concentration in plasma of the compound in the cats, the pharmacokinetic parameters were calculated by applying the software Winnolin 8.3 in a non-compartmental model. Table 12 Average pharmacokinetic parameters after single subcutaneous administration in cats

For the molecule `CC[C@H](C)[C@H](NC(=O)C(C)(C)NC(=O)[C@H](Cc1ccc(O)cc1)NC(=O)[C@H](CC(=O)O)NC(=O)[C@H](CO)NC(=O)[C@@H](NC(=O)C(C)(Cc1ccccc1)NC(=O)[C@@H](NC(=O)CNC(=O)[C@H](CCC(=O)O)NC(=O)C(C)(C)NC(=O)[C@@H](N)Cc1ccc(O)cc1)[C@@H](C)O)[C@@H](C)O)C(=O)NC(C)(C)C(=O)N[C@@H](CC(C)C)C(=O)N[C@@H](CC(=O)O)C(=O)N[C@@H](CCCCN)C(=O)N[C@@H](CCC(N)=O)C(=O)N[C@@H](C)C(=O)N[C@@H](CCC(N)=O)C(=O)N[C@@H](C)C(=O)N[C@@H](CCC(=O)O)C(=O)N[C@@H](Cc1ccccc1)C(=O)N[C@H](C(=O)N[C@@H](CCCCNC(=O)COCCOCCNC(=O)COCCOCCNC(=O)COCCOCCNC(=O)CC[C@H](NC(=O)CCCCCCCCCCCCCCCCCCCCC(=O)O)C(=O)O)C(=O)N[C@@H](Cc1c[nH]c2ccccc12)C(=O)N[C@@H](CC(C)C)C(=O)N[C@@H](CC(C)C)C(=O)N[C@@H](CCCCN)C(=O)NCC(=O)NCC(=O)N1CCC[C@H]1C(=O)N[C@@H](CO)C(=O)N[C@@H](CO)C(=O)NCC(=O)N[C@@H](C)C(=O)N1CCC[C@H]1C(=O)N1CCC[C@H]1C(=O)N1CCC[C@H]1C(=O)N[C@@H](CO)C(=O)N[C@@H](CCCCN)C(N)=O)C(C)C` (some centres unmarked) [Compound P016], in the data set on cat GIPR, the “GIPR EC50 ratio” value is on record as 3.59. Also, the “GLP-1R EC50 ratio” value on rabbit GLP-1R stood at 1.05. Besides, in the data set “in vivo” (both sexes, cat), the area under the curve AUC(0-inf) turned out to be 11200 ng·h/mL, the AUC(0-t) came out at 9260 ng·h/mL, the Cmax came to 123 ng/mL and the Tmax was 24 h. This molecule showed a half-life in the data set “in vivo” (both sexes, cat) of 37.4 h. In addition, the MRT in “in vivo” (both sexes, cat, MRT0-t) was found to be 54.4 h. Besides, in “in vivo” (both sexes, cat, MRT0-∞), the MRT was 61.6 h. Further, in “in vivo”, the AUC(0-t) was 9260 ng·h/mL and the T1/2 was determined as 37.4 h.
